The source of these data is US20030181354A1, “Method for central nervous system targeting through the ocular route of drug delivery” (priority 2002, published 2003).

The conditions of data set [1]: reported; cited from earlier work.
The procedure of data set [2]: A study was conducted to examine for the first time the neuro-ocular tissue distribution of brimonidine following one single 50 μl instillation of 3H-Alphagan aqueous solution (0.2%) into the albino rabbit eye. Both eyes and the brain were dissected. Both side specimens of aqueous humor, cornea, iris, lens, vitreous, conjunctiva, sclera, ciliary body, choroid, retina, optic nerve, optic tract, olfactory bulb, as well as corpus callosum and blood samples were collected. The corpus callosum was chosen as an indicator of general availability of the drug in the brain. The olfactory bulbs were included to rule out ocular-brain drug delivery through the nasal cavity.
In the method employed, following single instillation of 50 μl of [3H]-radio labeled brimonidine tartrate in the cul-de-sac of the right eye, male albino rabbits (2-2.5 kg) were sacrificed at the selected time point (15, 30 min., 1, 2. 3, and 4 h). Both eyes and the brain were dissected. Both sides specimens of aqueous humor, cornea, iris, lens, vitreous, conjunctiva, sclera, ciliary body, choroid, retina, optic nerve, optic tract, as well as chiasm, cerebral and blood samples were weighted before combustion in Packard sample Oxidizer (model 307), and radioactive [3H] brimonidine liquid scintillation counting.

Data set [3] has as its system alpha 2-adrenoceptor regulated serotonin release. The note with it: rat hippocampus in vivo; cited from earlier work.
The test system of data set [4] is memory. The note with it: very small doses, monkeys; cited from earlier work.
Data set [5] relates to migraine related symptoms. The note with it: 0.2% topical to the eye, as additional antiglaucoma agent. The text has this: A patient with a history of migraine, and both eyes primary open angle glaucoma.
A patient with a history of migraine, and right eye primary open angle glaucoma.

Some results are limits rather than exact numbers.

Turning to `Brc1c(NC2=NCCN2)ccc2nccnc12` [brimonidine, 5-bromo-6-(2-imidozolin-2-ylamino) quinoxaline], the systemic half life in data set [1] is 3 h. In data set [2] (15 min, P<0.001), the “contralateral eye choroid peak higher than in the blood” value stood at 99.5 folds and the “contralateral eye ciliary body peak higher than in the blood” value was determined as 76.5 folds. In data set [2] (P<0.01), the “corpus callosum AUC higher than in the left optic nerve” value is listed as 118% and the “corpus callosum AUC higher than in the right optic nerve” value is recorded as 177%. Further, in data set [2] (P<0.05), the “corpus callosum AUC higher than in the right optic tract” value turned out to be 123%. Moreover, the “corpus callosum AUC higher than in the left optic tract” value in data set [2] (P<0.10) is 111%. Moreover, in data set [2] (at 5 min), the “corpus callosum 3H-brimonidine concentration” value came to 993.79 ± 48.43 ng/g. For the same molecule, the “corpus callosum concentration higher than in the right optic nerve” value in data set [2] (at 5 min, P<0.001) is given as 763%. Also, the “brimonidine concentration in the corpus callosum higher than in the blood” value in data set [2] (at 5 minutes, P<0.001) turned out to be 148 folds. For the same molecule, the “drug concentration detected in the blood samples” value in data set [2] (blood, after ocular instillation) was “extremely low”. Moreover, the “time of brimonidine delivery to the ciliary body of the contralateral eye” value in data set [2] (contralateral eye) is less than 5 min. Moreover, the “ciliary body brimonidine level” value in data set [2] (contralateral eye, 5 minutes post drug application) amounted to 444.28 ± 86.38 ng/g. In addition, in data set [2] (contralateral eye, 15 minutes), the “ciliary body brimonidine level, peak” value worked out at 619.74 ± 36.35 ng/g. Moreover, in data set [2] (contralateral eye, P<0.001), the “ciliary body AUC higher than in the conjunctiva” value is on record as 340% and the “ciliary body AUC higher than in the retina” value came out at 322%. In data set [2] (contralateral eye, P<0.01), the “choroid AUC higher than in the conjunctiva” value is 290% and the “choroid AUC higher than in the retina” value is recorded as 275%. Also, the “drug levels observed in the olfactory bulbs” value in data set [2] (olfactory bulbs) is given as “low”. For the same molecule, in data set [2] (treated eye, P<0.01), the “Vitreal AUC as % of aqueous humor AUC” value was 8.85%. Further, in data set [2] (treated eye, p<0.001), the “Choroidal brimonidine AUC higher than retinal AUC” value amounted to 196%, the “Retinal AUC higher than vitreous AUC” value is 636% and the “Vitreal AUC as % of retinal AUC” value is given as 15.7%. In addition, the “brimonidine AUC corpus callosum higher than blood” value in data set [2] (whole study period, P<0.001) is 40 folds. Besides, the “effect on release of serotonin (5-HT)” value in data set [3] is “inhibitory action”. The effect on memory entry in data set [4] is “reliable but modest improvement of memory”.
For “tartrate of 5-bromo-6-(2-imidozolin-2-ylamino) quinoxaline [brimonidine tartrate]”, the “patient-reported effect on migraine related symptoms” value in data set [5] was “substantial relief of migraine related symptoms”.
